In the supplement of paper PMC10307832:

Columns and labels:
Experiment in all cases: relative viability (nuclei count vs DMSO), 5 days (fraction); higher = more cells survive
Ispinesib + OSI-027 = compound: Cc1ccc(C(=O)N(CCCN)[C@@H](c2nc3cc(Cl)ccc3c(=O)n2Cc2ccccc2)C(C)C)cc1 [Ispinesib] + COc1cccc2cc(-c3nc([C@H]4CC[C@H](C(=O)O)CC4)n4ncnc(N)c34)[nH]c12 [OSI-027] (partner 0.5 µM)
Procedure, shortened: (§1)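 Relative viability equals treated-well nuclei counts divided by vehicle-well nuclei counts. Counts came from 4× images of lung cancer cell lines grown in 1536-well plates for 5 days after pin-tool dosing on the day after seeding. Dosing used one drug alone or a fixed anchor-drug dose plus five library-drug doses (not always all listed) in √10 steps, and values are medians of duplicate plates.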

Ispinesib + Phenformin = compound: Cc1ccc(C(=O)N(CCCN)[C@@H](c2nc3cc(Cl)ccc3c(=O)n2Cc2ccccc2)C(C)C)cc1 [Ispinesib] + N=C(N)NC(=N)NCCc1ccccc1 [Phenformin] (partner 250 µM)
Procedure, shortened: as §1

Ispinesib + Vorinostat = compound: Cc1ccc(C(=O)N(CCCN)[C@@H](c2nc3cc(Cl)ccc3c(=O)n2Cc2ccccc2)C(C)C)cc1 [Ispinesib] + O=C(CCCCCCC(=O)Nc1ccccc1)NO [Vorinostat] (partner 1 µM)
Procedure, shortened: as §1

Linsitinib + Foretinib = compound: C[C@]1(O)C[C@@H](c2nc(-c3ccc4ccc(-c5ccccc5)nc4c3)c3c(N)nccn32)C1 [Linsitinib] + COc1cc2c(Oc3ccc(NC(=O)C4(C(=O)Nc5ccc(F)cc5)CC4)cc3F)ccnc2cc1OCCCN1CCOCC1 [Foretinib] (partner 0.25 µM)
Procedure, shortened: as §1

UMC-11 was tested, and the relative viability (Ispinesib + OSI-027; first compound 0.001 µM) was 0.484, the relative viability (Ispinesib + OSI-027; first compound 0.003162 µM) was 0.429 and the relative viability (Ispinesib + OSI-027; first compound 0.01 µM) was 0.445. The relative viability (Ispinesib + OSI-027; first compound 0.03162 µM) was 0.219, the relative viability (Ispinesib + OSI-027; first compound 0.1 µM) was 0.239 and the relative viability (Ispinesib + Phenformin; first compound 0.001 µM) was 0.346. It also gave a relative viability (Ispinesib + Phenformin; first compound 0.003162 µM) of 0.327, a relative viability (Ispinesib + Phenformin; first compound 0.01 µM) of 0.286 and a relative viability (Ispinesib + Phenformin; first compound 0.03162 µM) of 0.179. It also gave a relative viability (Ispinesib + Phenformin; first compound 0.1 µM) of 0.193, a relative viability (Ispinesib + Vorinostat; first compound 0.001 µM) of 0.308 and a relative viability (Ispinesib + Vorinostat; first compound 0.003162 µM) of 0.459. It also gave a relative viability (Ispinesib + Vorinostat; first compound 0.01 µM) of 0.327, a relative viability (Ispinesib + Vorinostat; first compound 0.03162 µM) of 0.281 and a relative viability (Ispinesib + Vorinostat; first compound 0.1 µM) of 0.319. It also gave a relative viability (Linsitinib + Foretinib; first compound 0.01 µM) of 0.976, a relative viability (Linsitinib + Foretinib; first compound 0.03162 µM) of 0.89 and a relative viability (Linsitinib + Foretinib; first compound 0.1 µM) of 1.03. For the same cell line, the relative viability (Linsitinib + Foretinib; first compound 1 µM) was 1.02.
